# Measured values as given in US20190274290A1, “GENETICALLY MODIFIED MOUSE MODEL FOR HUMAN HEPATOCYTE XENOTRANSPLANTATION” (The Jackson Laboratory, priority 2016, published 2019).
# Key:
# NSG-PiZ mice [1] = assay: Percentage of human hepatocytes in engrafted mouse liver (flow cytometry, anti-HLA-ABC / CD324); format: in vivo; settings: MCT-treated NSG-PiZ mice; flow cytometry with anti-HLA antibody
# Description: After dissociation, cells were stained on ice for 30 minutes with anti-mouse/human CD324 (Biolegend) and anti-HLA-ABC (BD Biosciences) antibodies to determine human hepatocyte percentage. Cells were then washed twice with 1×PBS and resuspended in 1×PBS supplemented with 0.5% FHS and 2 mM EDTA. Cells were acquired using FACS-LSRII flow cytometer (BD Biosciences) and analyzed with FlowJo software (version 10.1; Tree Star Inc.).
# (§1) All recipient mice were males, age 6-10 weeks, and they were anesthetized by isoflurane inhalation in a closed ventilation chamber. For intrasplenic injection, an incision was made on mouse left paralumbar fossa in order to expose the spleen. […] The exposed spleen was returned to the abdominal cavity and the incision was closed with an absorbable suture (4-0 Vicryl). Vet Bond was applied topically to seal the skin incision. For partial hepatectomy, median-line incision was made to expose the liver. The median lobe of the liver and the left lateral lobe were seemly tied off with 4-0 silk Blake braided suture and excised. Two-thirds of the total liver was removed by partial hepatectomy. The remaining liver was gently returned to the abdominal cavity. Finally, the opposing sections of the abdominal wall were aligned at the ventral midline, and an absorbable suture (4-0 Vicryl) was applied to close the incision. […]
# NSG-PiZ mice [2] = assay: Human hepatocyte engraftment in NSG-PiZ mice, serum human albumin ELISA; format: in vivo, mouse; settings: for human hepatocyte engraftment (serum human albumin), comparison of groups: two doses of 50 mg/kg intraperitoneal MCT 14 and 7 days before engraftment, 50 mg/kg
# Description: Human albumin levels were evaluated post-engraftment by using the human Albumin ELISA quantitation set (Bethyl Labs) as described by the manufacturer. For all assays, after incubation with the HRP-conjugated antibody, 3,3′,5,5′-tetramethylbenzidine (TMB) peroxidase substrate (KPL) was applied, and the reactions were stopped by adding 2 […] (Fisher Scientific) after 15-30 min. Plates were read at […] on a VersaMax microplate reader (Molecular Devices).
# Animals were pre-treated with 50 mg/kg MCT (Oakwood Chemical) intraperitoneally 7 days or 14 and 7 days prior to engraftment or treated at the time of engraftment with 1 μg purified NA/LE hamster anti-mouse CD95 antibody (first apoptosis signal [FAS], BD PharMingen) intravenously.
# To investigate additional methods for increased human hepatocyte engraftment, two approaches used in the liver xenograft field were tested: monocrotaline (MCT) and a mouse-specific anti-Fas antigen (CD95) antibody. MCT is a pyrrolizidine plant alkaloid with known endothelial toxicity in the lung, liver, and kidney. […] The anti-CD95 antibody recognizes mouse Fas and leads to cytolytic activity of cells expressing mouse Fas by inducing apoptosis of mouse hepatocytes and other cells.
# as §1, with “cavity.” for “cavity. Finally, the opposing sections of the abdominal wall were aligned at the ventral midline, and an absorbable suture (4-0 Vicryl) was applied to close the incision.”
structure (smiles),measurement,setting,value
"C[C@H]1C(=O)O[C@@H]2CCN3CC=C(COC(=O)[C@](C)(O)[C@]1(C)O)[C@H]23 [MCT, monocrotaline]",hepatocytes of human origin,NSG-PiZ mice [1],at least 25%
same,human hepatocyte engraftment (serum human albumin),"NSG-PiZ mice [2]; MCT 50 mg/kg before engraftment or 1 μg anti-mouse CD95 antibody at engraftment, versus intrasplenic engraftment alone",significantly increased
same,"human hepatocyte engraftment (serum human albumin), comparison of groups",NSG-PiZ mice [2],greatest engraftment
same,"human hepatocyte engraftment (serum human albumin), comparison of groups",NSG-PiZ mice [2]; listed as monocrotaline,greatest serum human albumin concentrations
